Experimental data from ChEMBL document CHEMBL1131587, “Novel peptidyl phosphorus derivatives as inhibitors of human calpain I” (J Med Chem, 1998).

The compounds below were run against T1, Calpain-1 catalytic subunit (Homo sapiens, UniProt P07384) (assay: inhibitory activity measured against recombinant human Calpain-I receptor).
T1 sequence (P07384 whole entry): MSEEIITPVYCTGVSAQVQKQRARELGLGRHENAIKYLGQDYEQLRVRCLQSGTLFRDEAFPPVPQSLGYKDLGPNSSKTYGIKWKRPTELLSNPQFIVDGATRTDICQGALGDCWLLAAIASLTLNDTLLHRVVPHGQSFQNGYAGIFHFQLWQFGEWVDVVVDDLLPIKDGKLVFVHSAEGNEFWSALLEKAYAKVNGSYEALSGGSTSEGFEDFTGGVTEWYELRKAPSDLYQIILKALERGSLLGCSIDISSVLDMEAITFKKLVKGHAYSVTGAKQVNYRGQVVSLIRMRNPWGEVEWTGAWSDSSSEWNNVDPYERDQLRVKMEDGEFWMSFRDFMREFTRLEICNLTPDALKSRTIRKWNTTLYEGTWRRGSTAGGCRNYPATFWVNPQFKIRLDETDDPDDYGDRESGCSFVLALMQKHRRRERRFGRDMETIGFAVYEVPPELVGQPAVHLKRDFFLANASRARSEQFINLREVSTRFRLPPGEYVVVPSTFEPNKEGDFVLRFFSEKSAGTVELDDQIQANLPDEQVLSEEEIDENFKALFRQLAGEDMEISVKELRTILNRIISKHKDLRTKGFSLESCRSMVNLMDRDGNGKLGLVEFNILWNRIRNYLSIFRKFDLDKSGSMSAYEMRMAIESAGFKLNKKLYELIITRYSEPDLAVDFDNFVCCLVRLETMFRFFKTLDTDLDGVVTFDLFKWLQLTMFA

| Compound | IC50 [µM] |
| --- | --- |
| CC(C)C(NC(=O)OCc1ccccc1)C(=O)N[C@H](Cc1ccccc1)C(=O)P(=O)(OCc1ccccc1)OCc1ccccc1 (stereo not given in full) | 6 |
| COP(=O)(O)C(=O)[C@@H](CC(C)C)NC(=O)C(CC(C)C)NC(=O)OCc1ccccc1 (stereo not given in full) | 5.2 |
| CCOP(=O)(C(=O)[C@@H](CC(C)C)NC(=O)C(CC(C)C)NC(=O)OCc1ccccc1)c1ccccc1 (stereo not given in full) | 0.37 |
| CC(C)CC(NC(=O)OCc1ccccc1)C(=O)N[C@H](CC(C)C)C(=O)P(C)(C)=O (stereo not given in full) | > 10 |
| COP(=O)(OC)C(=O)[C@@H](Cc1ccccc1)NC(=O)C(NC(=O)OCc1ccccc1)C(C)C (stereo not given in full) | 7.4 |

Other lines, results leading:

| IC50 [µM] | Compound |
| --- | --- |
| 0.43 | COP(=O)(OC)C(=O)[C@@H](CC(C)C)NC(=O)C(CC(C)C)NC(=O)OCc1ccccc1 (stereo not given in full) |
| > 10 | CCCCOP(=O)(OCCCC)C(=O)[C@@H](Cc1ccccc1)NC(=O)C(NC(=O)OCc1ccccc1)C(C)C (stereo not given in full) |
| 0.35 | CC(C)CC(NC(=O)OCc1ccccc1)C(=O)N[C@H](CC(C)C)C(=O)P(=O)(c1ccc(Cl)cc1)c1ccc(Cl)cc1 (stereo not given in full) |
| 0.6 | CCOC(=O)[C@@H](CC(C)C)NC(=O)C(CC(C)C)NC(=O)OCc1ccccc1 (stereo not given in full) |
| > 10 | CCCCOP(=O)(OCCCC)C(=O)[C@@H](CC(C)C)NC(=O)C(CC(C)C)NC(=O)OCc1ccccc1 (stereo not given in full) |
